A melting point compilation (Tetko et al.; mined from patent text by program, amines drawn as free bases though some values may be those of a salt)

Row | melting point | SMILES
1 | 141 to 143 °C | COc1cc2ncnc(N3CCN(C(=O)Nc4ccncc4)CC3)c2cc1OC
2 | 210 to 211 °C | Cc1ccc(-c2c3cc(C)ccc3nc3ccc(C)cc23)cc1
3 | 80 to 82 °C | CC(Oc1ccc(F)cc1)C1CN(c2ccccc2)CCN1 (stereo unspecified)
4 | 105 °C | CC(C)(C)C(=O)Oc1ccc(-c2nn(C3CCCC3)c3c(F)cccc23)cc1
5 | 230 to 233 °C | Nc1nc2c(sc(=S)n2C2OC(COC(=O)c3ccccc3)C(OC(=O)c3ccccc3)C2OC(=O)c2ccccc2)c(=O)[nH]1 (stereo unspecified)
6 | > 310 °C | Cc1nc(N)nc(N)c1N1CCN(c2ccc(C(=O)NCC(=O)O)cc2)CC1
7 | 149 to 151 °C | Cc1ccc(S(=O)(=O)n2ccnc2C(O)(c2ccc(F)cc2)c2ccc(F)cc2)cc1
8 | 173 to 174 °C | O=S(Cc1ccccn1)c1nc2cc3c(cc2[nH]1)CCC3 (stereo unspecified)
9 | 205 to 207 °C | CC(C)c1nc(-c2ccccc2Cc2ccccc2)cc(-c2ccc(F)cc2)c1C=O
10 | 118 to 119 °C | CCN(CC)C(=O)c1nc(/C=C/c2ccc([N+](=O)[O-])o2)no1
11 | 250 to 252 °C | CC(C)c1ccc(-n2c(CC(=O)O)c(C(=O)O)c3cc(Oc4ccc(C(F)(F)F)cc4)ccc32)cc1
12 | 265 to 266 °C | CN1CCN(c2ccc(Nc3ncc4c(Br)cc(-c5ccc(S(C)(=O)=O)cc5)n4n3)cc2)CC1
13 | 134 to 137 °C | Cc1ccc(-n2cccc2-c2ccc(S(C)(=O)=O)cc2)cc1C
14 | 159 to 162 °C | CS(=O)c1cnc2c(c1)CCC(c1ccc(Cl)c(Cl)c1)O2 (stereo unspecified)
15 | 69 to 70 °C | COc1cc(CCCC(=O)O)ccc1C
16 | 157 to 158 °C | COc1cccc(-c2cnn(-c3cccc(C(=O)O)c3)c2)c1
17 | 82 to 87 °C | Cc1ccccc1-c1ccc2c(c1)CC[C@H]1N(C)C(=O)CC[C@]21C
18 | 257 to 259 °C | Nc1nc2ccccc2c2c1ncn2Cc1ccccc1
19 | 167 to 168 °C | Cc1cn(S(C)(=O)=O)c2c1C(=O)CC(c1ccccc1Cl)C2 (stereo unspecified)
20 | 156 °C | CCCCOC(=O)C(CCc1ccccc1)NC1CSC(c2ccsc2)CN(CC(=O)O)C1=O (stereo unspecified)
21 | 159 to 162 °C | N#Cc1ccc(Cn2cncn2)cc1-c1ccc(OS(N)(=O)=O)cc1
22 | 171 to 172 °C | CCOP(=O)(Cc1ccc(C(=O)Nc2ccccc2C(=O)O)cc1)OCC
23 | 120 to 122 °C | CCCc1c(OCCCCCCc2cccc(OC(C)=O)c2OC(C)=O)ccc(C(=O)O)c1O

Row | melting point | SMILES
24 | 214 °C | O=C(O)COc1cc(Cl)sc1C(=O)O
25 | 191 to 192 °C | CC(C)Cn1c(CNC(=O)OC(C)(C)C)c(-c2ccccc2F)c2cc(C#N)ccc2c1=O
26 | 60 to 64 °C | O=C(NCC(F)(F)F)C1(CCCCc2ccc(NS(=O)(=O)c3ccccc3[N+](=O)[O-])cc2)c2ccccc2-c2ccccc21
27 | 94 to 95 °C | CCOC(=O)N1c2cc(OC)c(OC)cc2C(=O)CC1C (stereo unspecified)
28 | 202 to 204 °C | Cc1c(-c2ccccc2)c(N2CC[C@](C)(N)C2)c2oc(C(=O)N(C)C)nc2c1C#N
29 | 86 to 88 °C | CC(=O)OCC1OC(n2cc(C(Br)=CI)c(=O)[nH]c2=O)C(OC(C)=O)C1OC(C)=O (stereo unspecified)
30 | 80 to 82 °C | CCOC(=O)COc1ccc(O)c(Cl)c1
31 | 223 to 225 °C | Cc1cc(C)cc(-n2ncc(C(=O)O)c2C(N)=O)c1
32 | 175 °C | Nc1nc2cc(N)c(OC(F)(F)F)cc2s1
33 | 93 to 95 °C | CN=C1SCN(Cc2ccccc2)C(=O)N1C
34 | 164 to 167 °C | Cc1nc(N)c2ncn(CCCCNC(=O)N3CCOCC3)c2c1C
35 | 206 to 208 °C | CC(C)Oc1ccc2nc[nH]c(=O)c2c1
36 | 205 °C | CN(CC(=O)O)C(=O)c1cccc2c(Br)cccc12
37 | 165 to 166 °C | Cn1c(CCN2CCN(c3cccc(C(F)(F)F)c3)CC2)nc2cc(Br)c3ccccc3c21
38 | 105 to 107 °C | CC(c1cccc(-c2ncc(OCCCN(C)C)cn2)c1)n1nc(-c2cccc(C#N)c2)ccc1=O (stereo unspecified)
39 | 118 to 123 °C | Cc1nc(Cl)c(C#N)c(C)c1-c1ccccc1
40 | 121 to 122 °C | CC(C)(C)OC(=O)NCc1ccc(OCCC2Oc3ccccc3N(Cc3ccc(Cl)cc3)C2=O)cc1 (stereo unspecified)
41 | 119 to 121 °C | Cc1ccc(CCc2ccnc(N)c2N)cc1
42 | 215 to 217 °C | Cn1ncnc1-c1oc2cccc(OCCc3ccc(F)cc3)c2c(=O)c1O
43 | 234 to 238 °C | CC1CC(=O)NN=C1c1ccc(N)c([N+](=O)[O-])c1 (stereo unspecified)
44 | 150 °C | CCC(CC)/C(N)=C(\C)C#N
45 | 215 °C | Cc1ccc(S(=O)(=O)OCC2C(=O)Nc3ccccc3SC2c2ccccc2)cc1 (stereo unspecified)
46 | 191 to 194 °C | COc1ccc(C(=O)Nc2c(C)c(C)c3c(c2C)C(c2ccc(F)cc2)C(C)(C)O3)cc1 (stereo unspecified)

Row | melting point | SMILES
47 | 235 to 237 °C | O=C(O)Cc1ccc(C(=O)O)cc1
48 | 160 to 162 °C | Cc1nc(-c2ccccc2)nc(N2CCCC2C(=O)N2CC(C)NC(C)C2)c1C (stereo unspecified)
49 | 119 to 121 °C | CC1=C(C(=O)CS(=O)(=O)NC(C)C)C(c2cccc([N+](=O)[O-])c2)C(C(=O)OC(C)C)=C(C)N1 (stereo unspecified)
50 | 238 to 240 °C | CC(=O)Oc1ccccc1-c1[nH]c2ccc(Cl)cc2c1-c1ccc(S(C)(=O)=O)cc1
51 | 110 to 111 °C | CS(=O)(=O)c1ccc(-c2cc(CO[N+](=O)[O-])nn2C2CCCCCCC2)cc1
52 | 115 to 117 °C | CC(C)(C)OC(=O)N1CCN(c2c(F)cc(N3CC(CN=[N+]=[N-])OC3=O)cc2F)CC1 (stereo unspecified)
53 | 133 to 134 °C | Cc1nc(N2C(=O)N(Cc3ccc(F)cc3)CC2O)sc1C(=O)NCc1ccccc1 (stereo unspecified)
54 | 117 °C | O=S(=O)(c1ccccc1)c1ccc(S)cc1
55 | 122 to 125 °C | COC(=O)Cc1cn(C(c2ccccc2)(c2ccccc2)c2ccccc2)cn1
56 | 96 to 98 °C | OCc1cc(OCc2ccc(C(F)(F)F)cc2)ccn1
57 | 168 to 169 °C | CCCCC1N=c2ccc(OCC)c(C(=O)OCC)c2=NC1=O (stereo unspecified)
58 | 179 to 181 °C | CC(=NO)c1nccc(OCC(F)(F)F)n1
59 | 126 °C | N#Cc1cccc2nc(CCC#Cc3ccccn3)oc12
60 | 177 to 178 °C | COc1ccc(S(=O)(=O)N2CCc3cccc(-c4ccc(Cl)cc4)c32)cc1
61 | 193 to 195 °C | COCc1csc(C(=O)C2C(=O)N(C(N)=O)c3ccc(Cl)cc32)c1 (stereo unspecified)
62 | 213 to 214 °C | NC(=O)C(=O)c1cccc(Cl)c1Cl
63 | 110 to 113 °C | COc1ccccc1N1CCN(CC2CCc3ccccc3C2O)CC1 (stereo unspecified)
64 | 135 to 137 °C | CSc1c(S(N)(=O)=O)ccn1C
65 | 184 °C | CC(C)c1c(C(=O)c2ccccc2)n(COCc2ccccc2)c(=O)[nH]c1=O
66 | 284 to 286 °C | Nc1c(F)c(F)c(OC(F)F)c2c1c(=O)c(C(=O)O)cn2C1CC1
67 | 218 to 220 °C | CC(C)[C@H](NC(=O)CCC(=O)Nc1ccccc1)C(N)=O
68 | 299 °C | NC(=O)c1ccc2c(c1)C(=O)c1ccccc1C2=O
69 | 50 to 52 °C | CCC(C)C(C(=O)O)n1sc2ccccc2c1=O (stereo unspecified)

Row | SMILES | melting point
70 | O=C(O)c1ccc(C2=NOC(c3cc(Cl)cc(Cl)c3)(C(F)(F)F)C2)cc1 (stereo unspecified) | 237 to 240 °C
71 | Clc1ccc2nnnn2n1 | 104 to 105 °C
